The source made the active and inactive calls. No cut-off for these calls is given here.
What was measured:
[1] = biological target: T1, Acetylcholinesterase (Homo sapiens, UniProt P22303); assay: Inhibition of AChE (unknown origin) using acetylthiocholine iodide as substrate by DTNB reagent based Ellman's method
[2] = biological target: Cholinesterase (Homo sapiens, UniProt P06276); assay: Inhibition of BuChE (unknown origin) using butyrylthiocholine iodide as substrate by DTNB reagent based Ellman's method
Sequence of Cholinesterase (P06276 whole entry): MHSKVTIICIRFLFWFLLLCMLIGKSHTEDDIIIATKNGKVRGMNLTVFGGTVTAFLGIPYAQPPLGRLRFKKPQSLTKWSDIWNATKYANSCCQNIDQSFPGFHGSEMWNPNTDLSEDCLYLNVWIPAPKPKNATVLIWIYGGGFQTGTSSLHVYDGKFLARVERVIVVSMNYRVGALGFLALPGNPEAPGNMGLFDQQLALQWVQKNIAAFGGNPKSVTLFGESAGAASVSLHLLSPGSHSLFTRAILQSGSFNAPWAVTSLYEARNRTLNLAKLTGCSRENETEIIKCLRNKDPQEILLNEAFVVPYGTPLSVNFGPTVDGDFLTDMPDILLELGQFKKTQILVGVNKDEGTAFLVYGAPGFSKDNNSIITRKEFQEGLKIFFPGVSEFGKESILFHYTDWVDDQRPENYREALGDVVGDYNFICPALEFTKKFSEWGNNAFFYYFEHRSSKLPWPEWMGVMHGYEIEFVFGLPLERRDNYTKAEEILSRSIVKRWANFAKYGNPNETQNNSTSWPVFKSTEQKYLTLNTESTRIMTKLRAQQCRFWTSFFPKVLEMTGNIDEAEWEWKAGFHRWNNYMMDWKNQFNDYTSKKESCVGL

[3] = biological target: 5-hydroxytryptamine receptor 4 (Homo sapiens) (UniProt Q13639); assay: Displacement of [3H]GR113808 from human 5-HT4 receptor expressed in Chem-1 cell membrane incubated for 60 mins by radiometric scintillation counting analysis relative to control; assay type: cell membranes; conditions: filed as agonist
Sequence of 5-hydroxytryptamine receptor 4 (Homo sapiens) (Q13639 whole entry): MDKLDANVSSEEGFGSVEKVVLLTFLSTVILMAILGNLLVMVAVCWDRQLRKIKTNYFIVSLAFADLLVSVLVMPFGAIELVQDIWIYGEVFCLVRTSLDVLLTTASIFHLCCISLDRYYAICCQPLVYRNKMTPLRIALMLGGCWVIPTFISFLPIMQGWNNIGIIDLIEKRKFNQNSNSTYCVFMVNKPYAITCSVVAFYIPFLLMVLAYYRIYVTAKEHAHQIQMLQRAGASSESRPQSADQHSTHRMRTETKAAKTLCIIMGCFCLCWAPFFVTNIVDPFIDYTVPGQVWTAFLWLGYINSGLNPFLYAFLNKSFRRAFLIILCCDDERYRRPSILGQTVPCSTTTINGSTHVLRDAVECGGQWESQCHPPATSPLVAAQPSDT

[4] = biological target: T1, Acetylcholinesterase; assay: Mixed type inhibition of AChE (unknown origin) using acetylthiocholine iodide as substrate by Lineweaver-Burk double reciprocal plot analysis

T1 sequence (P22303 whole entry): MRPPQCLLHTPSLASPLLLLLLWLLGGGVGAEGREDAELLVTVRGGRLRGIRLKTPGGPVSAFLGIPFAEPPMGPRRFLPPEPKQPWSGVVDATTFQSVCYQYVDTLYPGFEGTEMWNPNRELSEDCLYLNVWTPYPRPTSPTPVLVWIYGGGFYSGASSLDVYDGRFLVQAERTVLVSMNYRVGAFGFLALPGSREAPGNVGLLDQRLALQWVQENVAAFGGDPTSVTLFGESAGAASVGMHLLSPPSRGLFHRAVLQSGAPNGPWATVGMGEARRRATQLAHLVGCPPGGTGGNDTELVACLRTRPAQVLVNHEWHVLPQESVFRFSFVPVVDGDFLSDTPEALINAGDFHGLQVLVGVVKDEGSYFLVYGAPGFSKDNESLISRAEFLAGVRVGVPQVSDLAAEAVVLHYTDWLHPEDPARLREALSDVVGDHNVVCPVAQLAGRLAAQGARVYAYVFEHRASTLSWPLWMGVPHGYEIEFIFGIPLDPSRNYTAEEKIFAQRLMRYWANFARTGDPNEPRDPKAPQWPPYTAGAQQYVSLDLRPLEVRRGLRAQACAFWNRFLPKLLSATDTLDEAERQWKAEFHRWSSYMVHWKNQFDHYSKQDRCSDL

Compound	IC50 [1] [µM]	IC50 [2] [µM]	inhibition [3] [%]	inhibition [4]
COc1ccc(C(=O)Cc2ncc(C(=O)NCc3ccc(OC)c(OC)c3)cn2)cc1	10	30.7	–	–
COc1ccc(C(=O)Cc2ncc(C(=O)N(C)CCCOc3cccc(OC)c3)cn2)cc1	44.9	8.36	–	–
COc1ccc(C(=O)Cc2ncc(C(=O)Nc3ccncc3)cn2)cc1	17.9	31.4	–	–
COc1ccc(C(=O)Cc2ncc(C(=O)N(C)CCCOc3c(F)c(F)c(F)c(F)c3F)cn2)cc1	5.14	28.9	–	–
COc1cccc(C(=O)Cc2ncc(C(=O)N(C)CCCOc3ccc([N+](=O)[O-])cc3)cn2)c1	4	2.59	–	–
COc1cc(N)c(Cl)cc1C(=O)CCC1CCN(CC2CCCCC2)CC1	–	–	48.3	–
CN(CCCOc1ccc([N+](=O)[O-])cc1)C(=O)c1cnc(CC(=O)c2ccc3c(c2)OCO3)nc1	0.99	48.4	–	–
COc1ccc(OCCCN(C)C(=O)c2cnc(CC(=O)c3ccc(OC)cc3)nc2)cc1	9.82	9.16	–	–
COc1ccc(C(=O)Cc2ncc(C(=O)N(C)CCCOc3ccc([N+](=O)[O-])cc3)cn2)cc1	4.56	13.1	–	–
C/C=C1\[C@H]2C=C(C)C[C@]1(N)c1ccc(=O)[nH]c1C2 [HUPERZINE A]	–	> 10000	–	–
CN(CCCOc1ccc([N+](=O)[O-])cc1)C(=O)c1cnc(CC(=O)c2ccccc2)nc1	9.94	6.08	–	–
COc1ccc(C(=O)Cc2ncc(C(=O)N(C)CCCOc3ccc(OC)c(OC)c3)cn2)cc1	29.8	8.3	–	–
COc1ccc(C(=O)Cc2ncc(C(=O)NCc3cccs3)cn2)cc1	30.7	3.45	–	–
CN(CCCOc1ccc([N+](=O)[O-])cc1)C(=O)c1cnc(CC(=O)c2cccs2)nc1	0.88	10	–	Active
CCOc1ccc(C(=O)Cc2ncc(C(=O)N(C)CCCOc3ccc([N+](=O)[O-])cc3)cn2)cc1	6.4	6.66	–	–
COc1ccc(C(=O)Cc2ncc(C(=O)N(C)CCCOc3ccc([N+](=O)[O-])cc3)cn2)cc1OC	3.79	5.73	–	–
COc1ccc(C(=O)Cc2ncc(C(=O)NC3CCN(Cc4ccccc4)CC3)cn2)cc1	28	3.7	–	–
COc1ccc(C(=O)Cc2ncc(C(=O)N3CCN(Cc4ccccc4)CC3)cn2)cc1	17.3	5.7	–	–
COc1ccc(C(=O)Cc2ncc(C(=O)N(C)CCCOc3ccc(C(F)(F)F)cc3)cn2)cc1	29.8	6.24	–	–

Reference: ChEMBL document CHEMBL5113467, “Design, synthesis and evaluation of 2-(2-oxoethyl)pyrimidine-5-carboxamide derivatives as acetylcholinesterase inhibitors” (Bioorg Med Chem Lett, 2022)
